Results published in patent publication US20220401331A1, “PERSONAL CLEANSING COMPOSITIONS, METHODS AND USES” (The Procter & Gamble Company, priority 2021, published 2022).

Experiment: Observations of appearance, structure and phase separation (Centrifuge Test, standing)
Type: physicochemical
Conditions: gel structure, phase separation

Substance: non-ethoxylated sodium tridecyl sulfate [ST0S]
- observations: did not form lamellar phase
